The results in this text go back to DBAASP.

For orientation: MIC means the smallest concentration in the dilution series that meets the test's criterion for growth inhibition. Read a high MIC as weaker potency.

Experiment in all cases: ≥ marks a high value that may be exact or a test limit, other limits are often not marked, values filed in µg/mL are converted to µM
One test relates to Escherichia coli.
For test [1], the system named is Staphylococcus aureus ATCC 25923.
Test [2] deals with Escherichia coli ATCC 25922.
Test [3] has as its system Pseudomonas aeruginosa ATCC 27853.

Converted amounts (≈) assume the structure as drawn. Some results are limits rather than exact numbers.

With `CC[C@H](C)[C@H](NC(=O)[C@H](CCCCN)NC(=O)[C@@H]1CCCN1C(=O)[C@@H](NC(=O)[C@H](CC(C)C)NC(=O)[C@H](C)NC(=O)[C@H](Cc1ccccc1)NC(=O)[C@H](Cc1ccccc1)NC(=O)CN)[C@@H](C)CC)C(=O)N[C@H](C(=O)N[C@@H](CO)C(=O)N[C@@H](CO)C(=O)N1CCC[C@H]1C(=O)N[C@@H](CC(C)C)C(=O)N[C@@H](Cc1ccccc1)C(=O)N[C@@H](CCCCN)C(=O)N[C@H](C(=O)N[C@@H](CC(C)C)C(N)=O)[C@@H](C)O)[C@@H](C)CC` [GFFALIPKIISSPLFKTL], in the test with Escherichia coli, the minimum inhibitory concentration (MIC) worked out at 17.1 µM (≈ 34 µg/mL).

For the compound `CC[C@H](C)[C@H](NC(=O)[C@H](CCCN=C(N)N)NC(=O)[C@H](CCCCN)NC(=O)[C@H](CC(C)C)NC(=O)[C@H](CC(C)C)NC(=O)CN)C(=O)N[C@@H](CCCCN)C(=O)N[C@H](C(=O)N[C@@H](C)C(=O)N[C@@H](CC(C)C)C(N)=O)[C@@H](C)O` [GLLKRIKTAL], the values for the MIC in test [1] and in test [2] were above 27.9 µM and 44 µM (≈ 49 µg/mL), respectively.

Regarding `CC[C@H](C)[C@H](NC(=O)[C@H](Cc1ccc(O)cc1)NC(=O)[C@H](CCC(N)=O)NC(=O)[C@H](CC(C)C)NC(=O)[C@H](C)NC(=O)[C@H](CCCCN)NC(=O)[C@H](CCCCN)NC(=O)[C@H](CCSC)NC(=O)[C@H](CCCCN)NC(=O)[C@@H](N)CCCCN)C(=O)N[C@@H](CCCCN)C(=O)N[C@@H](CC(C)C)C(=O)N[C@@H](CC(C)C)C(=O)N[C@@H](CCCCN)C(=O)N[C@@H](CCC(=O)O)C(N)=O` [KKMKKALQYIKLLKE], the MIC in test [2] and in test [3] was above 100 µM in each case.

In the case of `CC(C)C[C@H](NC(=O)[C@H](CO)NC(=O)[C@@H](N)CCCCN)C(=O)N[C@@H](CCCN=C(N)N)C(=O)N[C@@H](CCCN=C(N)N)C(=O)N[C@H](C(=O)N[C@@H](Cc1c[nH]c2ccccc12)C(=O)N[C@@H](CCCN=C(N)N)C(=O)N[C@@H](CO)C(=O)N[C@@H](Cc1c[nH]c2ccccc12)C(=O)N[C@@H](CCCN=C(N)N)C(N)=O)C(C)C` [KSLRRVWRSWR], the MIC was found to be 60 µM (≈ 91.7 µg/mL) in test [1], 30 µM (≈ 45.9 µg/mL) in test [2] and 40 µM (≈ 61.2 µg/mL) in test [3].

Turning to `CC[C@H](C)[C@H](NC(=O)CNC(=O)[C@H](CO)NC(=O)[C@H](CCCN=C(N)N)NC(=O)[C@@H](NC(=O)CNC(=O)[C@H](Cc1c[nH]c2ccccc12)NC(=O)[C@H](CC(C)C)NC(=O)[C@H](CC(=O)O)NC(=O)[C@@H](NC(=O)[C@H](CCCCN)NC(=O)[C@H](CC(C)C)NC(=O)[C@@H](N)CCC(N)=O)C(C)C)[C@@H](C)O)C(N)=O` [QLKVDLWGTRSGI], the MIC in test [1], in test [2] and in test [3] was above 100 µM throughout.

Turning to `CSCC[C@H](NC(=O)[C@H](CCCCN)NC(=O)[C@H](CCCCN)NC(=O)[C@H](CCCCN)NC(=O)[C@H](CCCN=C(N)N)NC(=O)[C@H](CCCN=C(N)N)NC(=O)[C@H](Cc1ccc(O)cc1)NC(=O)[C@@H](N)CCCN=C(N)N)C(=O)N[C@@H](CCCCN)C(=O)N[C@@H](CCCCN)C(=O)N[C@@H](C)C(N)=O` [RYRRKKKMKKA], the MIC in test [2] and in test [3] was above 100 µM each time.

Turning to `NCCCC[C@H](NC(=O)[C@H](CCCCN)NC(=O)[C@H](CCCCN)NC(=O)[C@H](CCCN=C(N)N)NC(=O)[C@H](CCCN=C(N)N)NC(=O)[C@H](Cc1ccc(O)cc1)NC(=O)[C@@H](N)CCCN=C(N)N)C(N)=O` [RYRRKKK], the minimal inhibitory concentration (MIC) in test [2] and in test [3] was above 100 µM each time.

In the case of `CC(C)C[C@H](NC(=O)[C@H](CCCCN)NC(=O)CNC(=O)[C@@H](N)CO)C(=O)N[C@@H](CS)C(=O)N[C@@H](CS)C(=O)N[C@@H](CCCN=C(N)N)C(=O)N[C@@H](CCCN=C(N)N)C(=O)N[C@@H](CCCCN)C(=O)N[C@@H](CCCCN)C(N)=O` [SGKLCCRRKK], the MIC in test [1] and in test [3] was above 100 µM in each case.
